From US20040209318A1, “Reagents and methods for the detection and quantification of vancomycin in bilogical fluids” (priority 1995, published 2004)

Assays:
[1] = tested on: monoclonal antibody #15-109-592; assay: Fluorescence polarization immunoassay of the present invention, cross reactivity; format: binding, mouse; conditions: for PRESENT INVENTION VALUES / PRESENT INVENTION cross reactivity: 0 ug/mL vancomycin
[2] = tested on: sheep polyclonal antibodies against vancomycin; assay: commercially available Abbott Vancomycin assay (TDX/TDXFLX FPIA), cross reactivity; format: binding; conditions: for COMMERCIAL ASSAY VALUES / COMMERCIAL ASSAY cross reactivity: 0 ug/mL vancomycin
Text: Commercially available fluorescent polarization assays (FPIA) for vancomycin are available. For instance, commercially available assays (Abbott […]® assays, (hereinafter referred to as the “commercially available Abbott Vancomycin assays(s)”)) include reagents for the quantitative measurement of vancomycin in serum or plasma samples. These assays use a vancomycin derivative labeled with a dichlorotriazinylaminofluorescein (DTAF) (hereinafter referred to as the “commercially available tracer”), and sheep polyclonal antibodies against vancomycin (hereinafter referred to as “commercially available antibodies”). […] In contrast, the commercially available vancomycin assay has elevated levels of CDP-I cross reactivity ranging from 39.58% to 65% with or without vancomycin present. […] (Refer to Table 3 for CDP-I cross-reactivity data.)

[3] = molecular target: anti-vancomycin Fab fragment; assay: BIAcore solution competition, equilibrium dissociation constant; format: binding, mouse; conditions: in solution, 20 nM Fab fragment; read-out: Equilibrium Dissociation Constant (KD)
Method: Biosensor surfaces were regenerated after each injection with successive 1 minute pulses of 6 M, 6M, and 1.5 M guanidine hydrochloride. Initial rates of binding of anti-vancomycin Fab fragment to the biosensor surface were measured over a 15 second window beginning 20 seconds postinjection. Data was evaluated by non-linear regression analysis using the solution affinity model built into BIAevaluation 3.0 software (BIAcore, Inc).
The binding affinities of several vancomycin analogs and tracers for anti-vancomycin Fab fragment were determined from solution competition experiments carried out on a BIAcore 2000. Initially, known concentrations of anti-vancomycin Fab fragment (0-22 nM) were injected over the aminoalkyl vancomycin biosensor surface. The initial rate of binding for each anti-vancomycin Fab fragment concentration was obtained by averaging the observed binding rate over a […] window beginning 20 seconds post injection. Data from the first 20 seconds of each sensorgram were omitted due to sample dispersion effects at the start of injections. A plot of initial binding rate versus concentration of anti-vancomycin Fab fragment was fit using a 4-parameter logistic (general model in BIAevaluation 3.0) providing a standard curve. […] A fixed concentration of anti-vancomycin Fab fragment (20 nM) was then mixed with twelve concentrations of each vancomycin analog or tracer and allowed to reach equilibrium. The equilibrium mixtures were individually injected over the aminoalkyl vancomycin biosensor surface, and the concentration of free anti-vancomycin Fab fragment remaining was quantitated by determination of the initial rate of binding to the biosensor surface as described above. A plot of free anti-vancomycin Fab fragment versus total concentration of added analog or tracer provides a competition curve. […] The data points represent the experimentally determined concentrations of free anti-vancomycin Fab fragment in equilibrium solutions at a given concentration of soluble analog or tracer. The curves represent the best nonlinear fit of the data using equation 1 (solution affinity model in BIAevaluation software) below: [formula]
where Fabτ is the concentration of free anti-vancomycin Fab fragment in equilibrium solutions, Fabτ is the total concentration of anti-vancomycin Fab fragment in solution (20 nM), A is the total concentration of added vancomycin analog or tracer, and KD is the equilibrium dissociation constant for the binding of the vancomycin analog or tracer to anti-vancomycin Fab fragment in solution.

[4] = 40 ug/mL vancomycin, 1 ug/mL CDP-I
[5] = 40 ug/mL vancomycin, 10 ug/mL CDP-I
[6] = 40 ug/mL vancomycin, 50 ug/mL CDP-I
[7] = 40 ug/mL vancomycin, 100 ug/mL CDP-I
[8] = 80 ug/mL vancomycin, 1 ug/mL CDP-I
[9] = 80 ug/mL vancomycin, 10 ug/mL CDP-I
[10] = 80 ug/mL vancomycin, 50 ug/mL CDP-I
[11] = 80 ug/mL vancomycin, 100 ug/mL CDP-I

## CNC(CC(C)C)C(=O)NC1C(=O)NC(C(=O)O)CC(=O)NC2C(=O)NC3C(=O)NC(C(=O)NC(C(=O)O)c4cc(O)cc(O)c4-c4cc3ccc4O)C(O)c3ccc(c(Cl)c3)Oc3cc2cc(c3OC2OC(CO)C(O)C(O)C2OC2CC(C)(N)C(O)C(C)O2)Oc2ccc(cc2Cl)C1O (stereo not shown) [CDP-I, Crystalline Degradation Product I]
[1]; CDP-I 1 ug/mL
  PRESENT INVENTION VALUES: 0.22 µg/mL
  PRESENT INVENTION cross reactivity: N.D. (Less than sensitivity at 2.00 ug/mL vancomycin)
[1]; CDP-I 2.5 ug/mL
  PRESENT INVENTION VALUES: 0.15 µg/mL
  PRESENT INVENTION cross reactivity: N.D. (Less than sensitivity at 2.00 ug/mL vancomycin)
[1]; CDP-I 5 ug/mL
  PRESENT INVENTION VALUES: 0.26 µg/mL
  PRESENT INVENTION cross reactivity: N.D. (Less than sensitivity at 2.00 ug/mL vancomycin)
[1]; CDP-I 7 ug/mL
  PRESENT INVENTION VALUES: LOW
  PRESENT INVENTION cross reactivity: N.D. (Less than sensitivity at 2.00 ug/mL vancomycin)
[1]; CDP-I 10 ug/mL
  PRESENT INVENTION VALUES: 0.13 µg/mL
  PRESENT INVENTION cross reactivity: N.D. (Less than sensitivity at 2.00 ug/mL vancomycin)
[1]; CDP-I 15 ug/mL
  PRESENT INVENTION VALUES: LOW
  PRESENT INVENTION cross reactivity: N.D. (Less than sensitivity at 2.00 ug/mL vancomycin)
[1]; CDP-I 20 ug/mL
  PRESENT INVENTION VALUES: 0.46 µg/mL
  PRESENT INVENTION cross reactivity: N.D. (Less than sensitivity at 2.00 ug/mL vancomycin)
[1]; CDP-I 25 ug/mL
  PRESENT INVENTION VALUES: 0.18 µg/mL
  PRESENT INVENTION cross reactivity: N.D. (Less than sensitivity at 2.00 ug/mL vancomycin)
[1]; CDP-I 50 ug/mL
  PRESENT INVENTION VALUES: 0.67 µg/mL
  PRESENT INVENTION cross reactivity: N.D. (Less than sensitivity at 2.00 ug/mL vancomycin)
[1]; [4]
  PRESENT INVENTION: 40.86 µg/mL
  PRESENT INVENTION % C.R.: N.D. (Less than sensitivity at 2.00 ug/mL vancomycin)
  PRESENT INVENTION Diff/Sample-Control: -0.20 µg/mL
[1]; [5]
  PRESENT INVENTION: 40.50 µg/mL
  PRESENT INVENTION % C.R.: N.D. (Less than sensitivity at 2.00 ug/mL vancomycin)
  PRESENT INVENTION Diff/Sample-Control: -0.54 µg/mL
[1]; [6]
  PRESENT INVENTION: 39.13 µg/mL
  PRESENT INVENTION % C.R.: N.D. (Less than sensitivity at 2.00 ug/mL vancomycin)
  PRESENT INVENTION Diff/Sample-Control: -0.14 µg/mL
[1]; [7]
  PRESENT INVENTION: 37.22 µg/mL
  PRESENT INVENTION % C.R.: N.D. (Less than sensitivity at 2.00 ug/mL vancomycin)
  PRESENT INVENTION Diff/Sample-Control: 0.24 µg/mL
[1]; [8]
  PRESENT INVENTION % C.R.: N.D. (Less than sensitivity at 2.00 ug/mL vancomycin)
  PRESENT INVENTION Diff/Sample-Control: -0.64 µg/mL
[1]; [9]
  PRESENT INVENTION: 79.49 µg/mL
  PRESENT INVENTION % C.R.: N.D. (Less than sensitivity at 2.00 ug/mL vancomycin)
  PRESENT INVENTION Diff/Sample-Control: -0.50 µg/mL
[1]; [10]
  PRESENT INVENTION: 74.41 µg/mL
  PRESENT INVENTION % C.R.: N.D. (Less than sensitivity at 2.00 ug/mL vancomycin)
  PRESENT INVENTION Diff/Sample-Control: -0.83 µg/mL
[1]; [11]
  PRESENT INVENTION: 71.22 µg/mL
  PRESENT INVENTION % C.R.: N.D. (Less than sensitivity at 2.00 ug/mL vancomycin)
  PRESENT INVENTION Diff/Sample-Control: -0.26 µg/mL
[1]; vancomycin 0, 40, 80 μg/mL, cross reactants 0, 1, 10, 50, 100 μg/mL
  cross-reactivity: less than 2%
[2]; CDP-I 1 ug/mL
  COMMERCIAL ASSAY VALUES: 0.92 µg/mL
  COMMERCIAL ASSAY cross reactivity: N.D. (Less than sensitivity at 2.00 ug/mL vancomycin)
[2]; CDP-I 2.5 ug/mL
  COMMERCIAL ASSAY VALUES: 1.61 µg/mL
  COMMERCIAL ASSAY cross reactivity: N.D. (Less than sensitivity at 2.00 ug/mL vancomycin)
[2]; CDP-I 5 ug/mL
  COMMERCIAL ASSAY VALUES: 3.25 µg/mL
  COMMERCIAL ASSAY cross reactivity: 65%
[2]; CDP-I 7 ug/mL
  COMMERCIAL ASSAY VALUES: 4.54 µg/mL
  COMMERCIAL ASSAY cross reactivity: 64.86%
[2]; CDP-I 10 ug/mL
  COMMERCIAL ASSAY VALUES: 6.42 µg/mL
  COMMERCIAL ASSAY cross reactivity: 64.2%
[2]; CDP-I 15 ug/mL
  COMMERCIAL ASSAY VALUES: 8.87 µg/mL
  COMMERCIAL ASSAY cross reactivity: 59.13%
[2]; CDP-I 20 ug/mL
  COMMERCIAL ASSAY VALUES: 11.04 µg/mL
  COMMERCIAL ASSAY cross reactivity: 55.20%
[2]; CDP-I 25 ug/mL
  COMMERCIAL ASSAY VALUES: 12.94 µg/mL
  COMMERCIAL ASSAY cross reactivity: 51.76%
[2]; CDP-I 50 ug/mL
  COMMERCIAL ASSAY VALUES: 19.79 µg/mL
  COMMERCIAL ASSAY cross reactivity: 39.58%
[2]; [4]
  COMMERCIAL ASSAY: 39.99 µg/mL
  COMMERCIAL ASSAY % C.R.: N.D. (Less than sensitivity at 2.00 ug/mL vancomycin)
  COMMERCIAL ASSAY Diff/Sample-control: 1.05 µg/mL
[2]; [5]
  COMMERCIAL ASSAY: 43.74 µg/mL
  COMMERCIAL ASSAY % C.R.: 48%
  COMMERCIAL ASSAY Diff/Sample-control: 4.80 µg/mL
[2]; [6]
  COMMERCIAL ASSAY: 55.49 µg/mL
  COMMERCIAL ASSAY % C.R.: 36.66%
  COMMERCIAL ASSAY Diff/Sample-control: 18.33 µg/mL
[2]; [7]
  COMMERCIAL ASSAY: 67.35 µg/mL
  COMMERCIAL ASSAY % C.R.: 30.85%
  COMMERCIAL ASSAY Diff/Sample-control: 30.85 µg/mL
[2]; [8]
  COMMERCIAL ASSAY: 78.85 µg/mL
  COMMERCIAL ASSAY % C.R.: N.D. (Less than sensitivity at 2.00 ug/mL vancomycin)
  COMMERCIAL ASSAY Diff/Sample-control: -0.68 µg/mL
[2]; [9]
  COMMERCIAL ASSAY: 83.34 µg/mL
  COMMERCIAL ASSAY % C.R.: 38.1%
  COMMERCIAL ASSAY Diff/Sample-control: 3.81 µg/mL
[2]; [10]
  COMMERCIAL ASSAY % C.R.: HI ((>100))
  COMMERCIAL ASSAY Diff/Sample-control: HI ((>100))
  COMMERCIAL ASSAY ug/mL: HI ((>100))
[2]; [11]
  COMMERCIAL ASSAY % C.R.: HI ((>100))
  COMMERCIAL ASSAY Diff/Sample-control: HI ((>100))
  COMMERCIAL ASSAY ug/mL: HI ((>100))

## CN[C@H](CC(C)C)C(=O)N[C@H]1C(=O)N[C@@H](CC(N)=O)C(=O)N[C@H]2C(=O)N[C@H]3C(=O)N[C@H](C(=O)N[C@H](C(=O)O)c4cc(O)cc(O)c4-c4cc3ccc4O)[C@H](O)c3ccc(c(Cl)c3)Oc3cc2cc(c3O[C@@H]2O[C@H](CO)[C@@H](O)[C@H](O)[C@H]2O)Oc2ccc(cc2Cl)[C@H]1O [compound 5, Desvancosaminylvancomycin]
[3]
  Kd: 587 ± 27 nM
